Results as given in US9365502B2, “Neuroactive substituted cyclopenta[b]phenanthrenes as modulators for GABA type-A receptors” (priority 2013, dated 2016).
Read-outs that look alike come from different tables or passages of the source.

What was measured:
[1] = molecular target: rat α1β2γ2L type GABAA receptors expressed in Xenopus laevis oocytes (Rattus norvegicus (Rat), UniProt P62813+P63138, INS375LLRMFSFK); experiment: Potentiation of GABA-mediated chloride currents, oocyte electrophysiology; type: cell-based; details: ± SEM; for Oocyte electrophysiology 0.1 μM (ratio of currents in presence/absence of compound): 0.1 μM compound; for Oocyte electrophysiology 0.1 μM (ratio of currents in presence/absence of compound) / Oocyte electrophysiology 1.0 μM (ratio of currents in presence/absence of compound) / Oocyte electrophysiology 10 μM (ratio of currents in presence/absence of compound): 2 μM GABA, N>=4; for Oocyte electrophysiology 1.0 μM (ratio of currents in presence/absence of compound): 1.0 μM compound; for Oocyte electrophysiology (gating) 10 μM (ratio of compound only current/2 μM GABA current): 10 μM compound in the absence of GABA; for Oocyte electrophysiology 10 μM (ratio of currents in presence/absence of compound): 10 μM compound
Method: The compounds of the present disclosure were evaluated for the ability to potentiate chloride currents mediated by 2 μM GABA at rat α1β2γ2L type GABAA receptors expressed in Xenopus laevis oocytes and the results are shown in Table 2.
The GABA concentration used for the control response was 2 μM. Each compound was evaluated on at least four different oocytes at the concentrations indicated, and the results reported are the ratio of currents measured in the presence/absence of added compound. Gating represents direct current gated by 10 μM compound in the absence of GABA, and this current is reported as the ratio of compound only current/2 μM GABA current. Error limits are calculated as standard error of the mean (N≧4). Methods used are known in the art (see Jiang, X., et al.).

Tadpole = Tadpole loss of righting (LRR) and loss of swimming (LSR) reflexes; type: in vivo; details: ± SEM
Method: Table 3 discloses the anesthetic effects of the compounds of the present disclosure. In particular, the anesthetic effect of the compounds of the present disclosure on Loss of Righting Reflex (LRR) and Loss of Swimming Reflex (LSR).
Methods used are known in the art (see Jiang, X., et al.). Error limits are calculated as standard error of the mean (N=10 or more animals at each of five or more different concentrations).

[2] = molecular target: picrotoxin binding site on GABAA receptors; experiment: [35S]-TBPS displacement (inhibition of [35S]-TBPS binding); details: mean ± SEM, duplicate experiments performed in triplicate
Method: The IC50 values for non-competitive displacers of [^35S]-TBPS from the picrotoxin binding site on GABAA receptors are reported in Table 1.
Results presented are from duplicate experiments performed in triplicate. Error limits are calculated as standard error of the mean. Methods used are known in the art (see Jiang, X., et al., Neurosteroid analogues. 9. Conformationally constrained pregnanes: structure-activity studies of 13,24-cyclo-18,21-dinorcholane analogues of the GABA modulatory and anesthetic steroids (3α,5α)- and […]. J. Med. Chem., 46: 5334-48 (2003)—the contents of which are hereby incorporated by reference in their entirety).

[3] = loss of righting reflex, read-out: Tadpole LRR EC50
[4] = loss of swimming reflex, read-out: Tadpole LSR EC50

Row | Structure (SMILES) | melting point [°C] | Oocyte electrophysiology 0.1 μM (ratio of currents in presence/absence of compound) [1] | Oocyte electrophysiology 1.0 μM (ratio of currents in presence/absence of compound) [1] | Oocyte electrophysiology (gating) 10 μM (ratio of compound only current/2 μM GABA current) [1] | Oocyte electrophysiology 10 μM (ratio of currents in presence/absence of compound) [1] | EC50 (Tadpole; [3]) [nM] | EC50 (Tadpole; [4]) [nM] | IC50 [2] [nM]
1 | C[C@]12C[C@H]3CC[C@@H]4C[C@@H](O)CC[C@H]4[C@@H]3C[C@@H]1CC[C@@H]2C#N | 162 to 164 | – | – | – | – | – | – | –
2 | CC(=O)[C@H]1CC[C@H]2C[C@@H]3[C@H](CC[C@@H]4C[C@@H](O)CC[C@H]43)C[C@@]21C | 131 to 133 | – | – | – | – | – | – | –
3 | C[C@@]12CC[C@H](O)C[C@H]1CC[C@@H]1C[C@]3(C)C(=O)CC[C@H]3C[C@H]12 | 179 to 181 | – | – | – | – | – | – | –
4 | C[C@]12CC(=O)C[C@@H]1C[C@H]1[C@@H](CC[C@H]3C[C@H](O)CC[C@@H]31)C2 | 165 to 166 | – | – | – | – | – | – | –
5 | C[C@@]12C[C@@H]3CC[C@@H]4C[C@H](O)CC[C@@H]4[C@H]3C[C@H]1CC[C@]21CO1 | 163 to 165 | – | – | – | – | – | – | –
6 | C[C@]12C[C@H]3CC[C@@H]4C[C@@H](O)CC[C@H]4[C@@H]3C[C@@H]1CC[C@@H]2[N+](=O)[O-] | 157 to 159 | – | – | – | – | – | – | –
7 | C[C@]12C[C@H]3CC[C@@H]4C[C@@H](O)CC[C@H]4[C@@H]3C[C@@H]1CC/C2=C/C#N [MQ-31] | – | 1.49 ± 0.09 | 3.93 ± 0.20 | 0.02 ± 0.02 | 8.25 ± 0.71 | 430 ± 80 | 1040 | 61 ± 4
8 | C[C@]12C[C@H]3CC[C@@H]4C[C@@H](O)CC[C@H]4[C@@H]3C[C@@H]1CC/C2=C\C#N [MQ-32] | – | 1.64 ± 0.02 | 3.21 ± 0.13 | 0.12 ± 0.01 | 8.77 ± 1.65 | 360 ± 130 | 1070 | 147 ± 9
9 | C[C@]12C[C@H]3CC[C@@H]4C[C@@H](O)CC[C@H]4[C@@H]3C[C@@H]1CC[C@@H]2[N+](=O)[O-] [MQ-33] | – | 1.68 ± 0.10 | 5.30 ± 0.75 | 0.02 ± 0.01 | 9.08 ± 1.83 | 240 ± 10 | 550 ± 10 | 62 ± 6
10 | C[C@]12C[C@H]3CCC4C[C@@H](O)CC[C@H]4[C@@H]3C[C@@H]1CCC2=O (some centres unmarked) [MQ-36] | – | 1.11 ± 0.09 | 1.22 ± 0.05 | −0.06 ± 0.06 | 3.81 ± 0.45 | 7900 ± 4450 | > 30000 | 1730
11 | C[C@]12C[C@H]3CC[C@@H]4C[C@@H](O)CCC4C3CC1CC[C@@]21CO1 (some centres unmarked) [MQ-37] | – | 1.91 ± 0.17 | 16.12 ± 2.24 | 0.54 ± 0.44 | 27.57 ± 5.45 | 160 | 540 ± 10 | 46 ± 4
